The source of these data is patent publication US7572797B2, “Amino substituted pyrazine derivatives for the treatment of pain” (Pfizer Inc., priority 2005, dated 2009).

Where two headings read alike, the source gives them in different places. Some results are limits rather than exact numbers.

In one assay the target is T1, Human Nav1.8 (Homo sapiens, UniProt Q9Y5Y9).
T1 construct: expressed in transfected cells
Description: VIPR assay for Nav1.8 (FRET membrane potential, deltamethrin as opener). In kind it is cell-based. The note with it: for IC50: HEK293 cells expressing human Nav1.8, average of replicates; for Selectivity Ratio: TTX-S IC50 / NaV1.8 IC50.

In assay [1] the test system is tetrodotoxin-sensitive voltage-gated sodium channels including NaV1.2, NaV1.3 and NaV1.7 (SHSY-5Y cell line). In words: TTX-S assay in SHSY-5Y cell line (VIPR procedure, veratridine as opener). Format: cell-based. The note with it: read-out: TTX-S IC50, SHSY-5Y cells, veratridine 50 μM, average of replicates.
The mark [2] stands for this setting: automated dissolution procedure.

T1 sequence (Q9Y5Y9 whole entry): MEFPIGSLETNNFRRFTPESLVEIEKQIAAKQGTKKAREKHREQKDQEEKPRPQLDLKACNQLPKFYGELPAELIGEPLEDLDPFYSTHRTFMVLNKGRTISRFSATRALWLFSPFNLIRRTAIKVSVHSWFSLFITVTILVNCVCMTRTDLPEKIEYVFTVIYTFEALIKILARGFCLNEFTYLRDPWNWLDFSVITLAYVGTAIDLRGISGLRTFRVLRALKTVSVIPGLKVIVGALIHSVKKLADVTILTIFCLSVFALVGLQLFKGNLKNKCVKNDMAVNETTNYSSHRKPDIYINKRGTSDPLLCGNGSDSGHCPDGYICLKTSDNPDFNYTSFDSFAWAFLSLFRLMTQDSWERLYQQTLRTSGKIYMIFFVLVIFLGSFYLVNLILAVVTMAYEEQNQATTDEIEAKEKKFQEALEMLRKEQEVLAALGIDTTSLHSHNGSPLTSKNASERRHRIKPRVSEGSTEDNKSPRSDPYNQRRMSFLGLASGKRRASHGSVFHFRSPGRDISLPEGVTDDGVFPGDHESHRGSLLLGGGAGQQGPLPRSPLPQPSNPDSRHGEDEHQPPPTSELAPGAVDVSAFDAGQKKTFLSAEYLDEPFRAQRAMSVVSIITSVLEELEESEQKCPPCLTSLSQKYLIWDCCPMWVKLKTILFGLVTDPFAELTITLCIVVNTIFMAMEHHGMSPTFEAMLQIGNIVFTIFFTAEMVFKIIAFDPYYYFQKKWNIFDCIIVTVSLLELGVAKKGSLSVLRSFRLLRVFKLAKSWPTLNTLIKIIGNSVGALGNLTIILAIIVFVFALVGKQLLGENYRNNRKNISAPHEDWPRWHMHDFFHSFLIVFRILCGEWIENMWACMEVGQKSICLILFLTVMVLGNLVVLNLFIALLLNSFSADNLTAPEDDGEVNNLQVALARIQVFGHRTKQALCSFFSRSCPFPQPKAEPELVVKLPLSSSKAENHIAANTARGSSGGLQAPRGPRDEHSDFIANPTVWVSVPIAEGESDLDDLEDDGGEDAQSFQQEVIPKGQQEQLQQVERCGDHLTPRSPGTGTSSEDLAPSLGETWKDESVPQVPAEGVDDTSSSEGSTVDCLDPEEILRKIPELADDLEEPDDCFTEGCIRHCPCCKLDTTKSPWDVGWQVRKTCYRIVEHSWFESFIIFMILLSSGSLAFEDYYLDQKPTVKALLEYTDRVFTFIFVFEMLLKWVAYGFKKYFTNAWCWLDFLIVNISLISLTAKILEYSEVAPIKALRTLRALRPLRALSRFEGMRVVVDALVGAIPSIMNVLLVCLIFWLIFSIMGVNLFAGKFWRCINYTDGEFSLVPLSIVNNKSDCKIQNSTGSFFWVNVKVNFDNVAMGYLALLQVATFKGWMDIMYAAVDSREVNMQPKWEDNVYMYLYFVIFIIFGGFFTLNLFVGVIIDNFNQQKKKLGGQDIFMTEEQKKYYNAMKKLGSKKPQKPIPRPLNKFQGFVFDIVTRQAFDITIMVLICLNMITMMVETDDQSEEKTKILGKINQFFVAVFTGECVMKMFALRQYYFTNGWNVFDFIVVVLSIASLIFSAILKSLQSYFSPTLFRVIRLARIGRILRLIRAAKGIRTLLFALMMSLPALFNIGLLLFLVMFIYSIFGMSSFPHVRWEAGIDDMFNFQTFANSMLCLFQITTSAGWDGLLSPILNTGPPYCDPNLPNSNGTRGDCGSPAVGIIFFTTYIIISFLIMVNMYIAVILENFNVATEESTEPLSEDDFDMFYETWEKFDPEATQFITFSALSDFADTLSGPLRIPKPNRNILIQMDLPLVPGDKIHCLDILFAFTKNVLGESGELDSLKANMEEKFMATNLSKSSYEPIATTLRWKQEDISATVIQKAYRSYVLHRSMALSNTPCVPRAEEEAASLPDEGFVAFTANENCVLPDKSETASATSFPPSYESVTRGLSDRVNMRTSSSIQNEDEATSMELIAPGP

A word on the IC50: it is the concentration needed to halve the response being measured. Regarding `Cn1nccc1C(=O)Nc1cnc(-c2cc(Cl)cc(Cl)c2Cl)c(N)n1` [Example 1, N-[6-Amino-5-(2,3,5-trichlorophenyl)pyrazin-2-yl]-1-methyl-1H-pyrazole-5-carboxamide], at Human Nav1.8 (manual dissolution procedure), the IC50 came to 0.988 µM and the “Selectivity Ratio” value is 11.4. For the same compound, the IC50 in assay [1] (manual dissolution procedure) came to 11.2 µM.
As to `COc1ccc(Cl)c(-c2ncc(NC(=O)c3ccnn3C)nc2N)c1` [Example 2, N-[6-Amino-5-(2-chloro-5-methoxyphenyl)pyrazin-2-yl]-1-methyl-1H-pyrazole-5-carboxamide], at Human Nav1.8 (setting [2]), the IC50 was determined as 3.24 µM and the “Selectivity Ratio” value was 11.8. For the same compound, the IC50 in assay [1] (setting [2]) came out at 38.3 µM.
On the same counts, the results for `Cn1nccc1C(=O)Nc1cnc(-c2cc(Cl)cc3c2OCCO3)c(N)n1` [Example 3, N-[6-Amino-5-(7-chloro-2,3-dihydro-1,4-benzodioxin-5-yl)pyrazin-2-yl]-1-methyl-1H-pyrazole-5-carboxamide] are 15.2 µM, >1.89 and > 28.8 µM.
As for `Cn1nccc1C(=O)Nc1cnc(-c2cc(F)ccc2Cl)c(N)n1` [Example 4, N-[6-amino-5-(2-chloro-5-fluorophenyl)pyrazin-2-yl]-1-methyl-1H-pyrazole-5-carboxamide], on Human Nav1.8 (setting [2]), the midpoint of inhibition, the IC50, lay at 8.73 µM and the “Selectivity Ratio” value is recorded as >3.46. Besides, the IC50 in assay [1] (setting [2]) was > 30.2 µM.
Turning to `Cn1nccc1C(=O)Nc1cnc(-c2cccc(Cl)c2Cl)c(N)n1` [Example 5, N-[6-amino-5-(2,3-dichlorophenyl)pyrazin-2-yl]-1-methyl-1H-pyrazole-5-carboxamide], the IC50 is 6.14 µM against Human Nav1.8 (setting [2]) and > 26.3 µM in assay [1] (setting [2]). For the same compound, the “Selectivity Ratio” value on Human Nav1.8 (setting [2]) is “->4.28”.
For `COc1cc(Cl)cc(-c2ncc(NC(=O)c3ccnn3C)nc2N)c1Cl` [Example 6, N-[6-amino-5-(2,5-dichloro-3-methoxyphenyl)pyrazin-2-yl]-1-methyl-1H-pyrazole-5-carboxamide], in that order: 4.71 µM, > 20 µM and >4.25.
In the case of `Cn1nccc1C(=O)Nc1cnc(-c2cc(Cl)ccc2Cl)c(N)n1` [Example 7, N-[6-amino-5-(2,5-dichlorophenyl)pyrazin-2-yl]-1-methyl-1H-pyrazole-5-carboxamide], the IC50 against Human Nav1.8 (setting [2]) was 3.8 µM; at Human Nav1.8 (manual dissolution procedure), 3.98 µM; in assay [1] (setting [2]), 20.5 µM; in assay [1] (manual dissolution procedure), 15.1 µM. Besides, the “Selectivity Ratio” value is listed as 5.40 at Human Nav1.8 (setting [2]) and 3.79 at Human Nav1.8 (manual dissolution procedure).
As for `Cn1nccc1C(=O)Nc1cnc(-c2cc(C#N)ccc2Cl)c(N)n1` [Example 11, N-[6-amino-5-(2-chloro-5-cyanophenyl)pyrazin-2-yl]-1-methyl-1H-pyrazole-5-carboxamide], at Human Nav1.8 (setting [2]), the IC50 is 4.47 µM and the “Selectivity Ratio” value is >6.76. For the same compound, the IC50 in assay [1] (setting [2]) is > 30.2 µM.
`COc1cc(Cl)c(Cl)c(-c2ncc(NC(=O)c3ccnn3C)nc2N)c1` [Example 12, N-[6-Amino-5-(2,3-dichloro-5-methoxyphenyl)pyrazin-2-yl]-1-methyl-1H-pyrazole-5-carboxamide]: at Human Nav1.8 (setting [2]), the IC50 stood at 1.31 µM and the “Selectivity Ratio” value was 12.67. In addition, the IC50 in assay [1] (setting [2]) came to 16.6 µM.
For the compound `COc1cc(Cl)cc(-c2ncc(NC(=O)c3cnoc3C)nc2N)c1Cl` [Example 13, N-[6-amino-5-(2,5-dichloro-3-methoxyphenyl)pyrazin-2-yl]-5-methylisoxazole-4-carboxamide], the IC50 was 10.4 µM against Human Nav1.8 (setting [2]) and > 25.8 µM in assay [1] (setting [2]). Also, the “Selectivity Ratio” value at Human Nav1.8 (setting [2]) was >2.48.
Take `Cc1oncc1C(=O)Nc1cnc(-c2cc(Cl)cc(Cl)c2Cl)c(N)n1` [Example 14, N-[6-amino-5-(2,3,5-trichlorophenyl)pyrazin-2-yl]-5-methylisoxazole-4-carboxamide]: the IC50 was found to be 1.36 µM on Human Nav1.8 (setting [2]), 0.276 µM against Human Nav1.8 (manual dissolution procedure), 14.7 µM in assay [1] (setting [2]) and 3.49 µM in assay [1] (manual dissolution procedure). Also, the “Selectivity Ratio” value is listed as 10.8 at Human Nav1.8 (setting [2]) and 12.7 on Human Nav1.8 (manual dissolution procedure).
As for `COc1ccc(Cl)c(-c2ncc(NC(=O)c3cnoc3C)nc2N)c1` [Example 15, N-[6-amino-5-(2-chloro-5-methoxyphenyl)pyrazin-2-yl]-5-methylisoxazole-4-carboxamide], the half-inhibitory concentration (IC50) against Human Nav1.8 (setting [2]) is > 30.2 µM; in assay [1] (setting [2]) it was > 30.4 µM.
For the compound `Cc1nocc1C(=O)Nc1cnc(-c2ccccc2Cl)c(N)n1` [Example 16, N-[6-amino-5-(2-chlorophenyl)pyrazin-2-yl]-3-methylisoxazole-4-carboxamide], the values for the IC50 (on Human Nav1.8 (setting [2]); in assay [1] (setting [2])) were 1.01 µM and > 24 µM, respectively. Besides, at Human Nav1.8 (setting [2]), the “Selectivity Ratio” value is recorded as >23.6.
Regarding `Cc1nocc1C(=O)Nc1cnc(-c2cccc(Cl)c2Cl)c(N)n1` [Example 17, N-[6-amino-5-(2,3-dichlorophenyl)pyrazin-2-yl]-3-methylisoxazole-4-carboxamide], on Human Nav1.8 (setting [2]), half-maximal inhibition (IC50) was put at 0.425 µM and the “Selectivity Ratio” value is reported as 29.4. Also, the IC50 in assay [1] (setting [2]) is 12.5 µM.
For `Cc1nocc1C(=O)Nc1cnc(-c2cc(Cl)cc(Cl)c2Cl)c(N)n1` [Example 18, N-[6-amino-5-(2,3,5-trichlorophenyl)pyrazin-2-yl]-3-methylisoxazole-4-carboxamide], the IC50 was 0.417 µM on Human Nav1.8 (manual dissolution procedure) and > 30 µM in assay [1] (manual dissolution procedure). Further, the “Selectivity Ratio” value at Human Nav1.8 (manual dissolution procedure) is >72.0.
With `Cc1nocc1C(=O)Nc1cnc(-c2cccc3ccccc23)c(N)n1` [Example 19, N-[6-amino-5-(1-naphthyl)pyrazin-2-yl]-3-methylisoxazole-4-carboxamide], on Human Nav1.8 (manual dissolution procedure), half-maximal inhibition (IC50) was put at 4.72 µM and the “Selectivity Ratio” value is >6.36. For the same compound, the IC50 in assay [1] (manual dissolution procedure) is > 30 µM.
Turning to `Cc1nocc1C(=O)Nc1cnc(-c2cc(Cl)ccc2Cl)c(N)n1` [Example 20, N-[6-amino-5-(2,5-dichlorophenyl)pyrazin-2-yl]-3-methylisoxazole-4-carboxamide], the IC50 at Human Nav1.8 (setting [2]) turned out to be 0.511 µM; against Human Nav1.8 (manual dissolution procedure) it was 0.188 µM; in assay [1] (setting [2]), 9.2 µM; in assay [1] (manual dissolution procedure) it was 12.5 µM. Moreover, the figures for the “Selectivity Ratio” value on Human Nav1.8 (setting [2]) and on Human Nav1.8 (manual dissolution procedure) were 18.00 and 66.5, respectively.
For `Cc1nocc1C(=O)Nc1cnc(-c2cc(Cl)cc3c2OCCO3)c(N)n1` [Example 21, N-[6-amino-5-(7-chloro-2,3-dihydro-1,4-benzodioxin-5-yl)pyrazin-2-yl]-3-methylisoxazole-4-carboxamide], on Human Nav1.8 (setting [2]), the IC50 is 4.81 µM and the “Selectivity Ratio” value was found to be 4.35. In addition, the IC50 in assay [1] (setting [2]) is 20.9 µM.
As to `Cc1nonc1C(=O)Nc1cnc(-c2cc(Cl)ccc2Cl)c(N)n1` [Example 23, N-[6-amino-5-(2,5-dichlorophenyl)pyrazin-2-yl]-4-methyl-1,2,5-oxadiazole-3-carboxamide], the IC50 against Human Nav1.8 (setting [2]) is 8.04 µM; in assay [1] (setting [2]) it was > 28.5 µM. The “Selectivity Ratio” value at Human Nav1.8 (setting [2]) was >3.54.
For the compound `COc1ccc(Cl)c(-c2ncc(NC(=O)c3conc3C)nc2N)c1` [Example 28, N-[6-amino-5-(2-chloro-5-methoxyphenyl)pyrazin-2-yl]-3-methylisoxazole-4-carboxamide], on Human Nav1.8 (setting [2]), inhibition was half-maximal at 2.61 µM (IC50) and the “Selectivity Ratio” value is listed as 9.81. The IC50 in assay [1] (setting [2]) came out at 25.6 µM.
For `COc1ccc(Cl)c(-c2ncc(NC(=O)c3nonc3C)nc2N)c1` [Example 29, N-[6-amino-5-(2-chloro-5-methoxyphenyl)pyrazin-2-yl]-4-methyl-1,2,5-oxadiazole-3-carboxamide], in that order: 7.97 µM, >3.69 and > 29.4 µM.
Turning to `COc1ccc(Cl)c(-c2ncc(NC(=O)c3cnoc3C(C)C)nc2N)c1` [Example 30, N-[6-amino-5-(2-chloro-5-methoxyphenyl)pyrazin-2-yl]-5-isopropylisoxazole-4-carboxamide], at Human Nav1.8 (setting [2]), it took 3.63 µM to reach half-maximal inhibition (IC50) and the “Selectivity Ratio” value was >8.15. Further, the IC50 in assay [1] (setting [2]) was > 29.6 µM.
Turning to `CCc1noc(C)c1C(=O)Nc1cnc(-c2cc(OC)ccc2Cl)c(N)n1` [Example 31, N-[6-amino-5-(2-chloro-5-methoxyphenyl)pyrazin-2-yl]-3-ethyl-5-methylisoxazole-4-carboxamide], the values for the IC50 (at Human Nav1.8 (setting [2]); in assay [1] (setting [2])) were 5.38 µM and > 28.1 µM, respectively. Also, on Human Nav1.8 (setting [2]), the “Selectivity Ratio” value is reported as >5.22.
For the compound `COc1ccc(Cl)c(-c2ncc(NC(=O)c3ccno3)nc2N)c1` [Example 32, N-[6-amino-5-(2-chloro-5-methoxyphenyl)pyrazin-2-yl]isoxazole-5-carboxamide], at Human Nav1.8 (setting [2]), half-maximal inhibition (IC50) was put at 6.12 µM and the “Selectivity Ratio” value is listed as >4.93. For the same compound, the IC50 in assay [1] (setting [2]) was > 30.2 µM.
As for `COc1ccc(Cl)c(-c2ncc(NC(=O)c3cnoc3)nc2N)c1` [Example 33, N-[6-amino-5-(2-chloro-5-methoxyphenyl)pyrazin-2-yl]isoxazole-4-carboxamide], the IC50 at Human Nav1.8 (setting [2]) was > 22.7 µM; in assay [1] (setting [2]) it was > 30.2 µM. Besides, the “Selectivity Ratio” value on Human Nav1.8 (setting [2]) is on record as “->1.33”.
For `COCCn1nccc1C(=O)Nc1cnc(-c2cc(OC)ccc2Cl)c(N)n1` [Example 34, N-[6-amino-5-(2-chloro-5-methoxyphenyl)pyrazin-2-yl]-1-(2-methoxyethyl)-1H-pyrazole-5-carboxamide], the figures for the IC50 (on Human Nav1.8 (setting [2]); in assay [1] (setting [2])) were 15.6 µM and > 30.2 µM, respectively.
Turning to `COc1ccc(Cl)c(-c2ncc(NC(=O)c3c(C)noc3C)nc2N)c1` [Example 36, N-[6-amino-5-(2-chloro-5-methoxyphenyl)pyrazin-2-yl]-3,5-dimethylisoxazole-4-carboxamide], the results for the concentration for half-maximal inhibition (IC50) (on Human Nav1.8 (setting [2]); in assay [1] (setting [2])) were 13.9 µM and > 30.2 µM, respectively. Besides, the “Selectivity Ratio” value on Human Nav1.8 (setting [2]) was >2.18.
With `COc1ccc(Cl)c(-c2ncc(NC(=O)c3ccon3)nc2N)c1` [Example 37, N-[6-amino-5-(2-chloro-5-methoxyphenyl)pyrazin-2-yl]isoxazole-3-carboxamide], the IC50 against Human Nav1.8 (setting [2]) was > 29.4 µM; in assay [1] (setting [2]) it was > 30.2 µM.
